Test results as given in paper PMC8448693, “Effects of co-formulants on the absorption and secretion of active substances in plant protection products in vitro” (Archives of Toxicology, 2021).

Key:
[1] = system: Caco-2 cell membrane fluidity; assay: DPH fluorescence anisotropy (membrane fluidity) in Caco-2 cells; assay type: cell-based; conditions: Caco-2, vs untreated control
Description: Furthermore, the active ingredients and the products were investigated at sub-cytotoxic concentrations to rule out any impact of the active ingredients. Briefly, Caco-2 cells were cultivated in six-well plates for 21 days and detached on day 21 using 1 mL Accutase Cell Detachment Solution (ACC-1B, Capricorn Scientific GmbH, Ebsdorfergrund, Germany) per well. After incubation for 20-30 min at room temperature, detached cells were separated by centrifugation. […] Fluorescence anisotropy measurements were performed at 37 °C using a dual monochromator fluorescence spectrometer (model LS 55, PerkinElmer, Rodgau, Germany) fitted with polarizing filters and a stirred cell. Samples were excited with 355 nm vertical polarised light and emission was measured at 430 nm in vertical and horizontal direction. Since fluorescence anisotropy is inversely related to membrane fluidity, decreased DPH fluorescence anisotropy implies an increased membrane fluidity. Three independent experiments were performed (n = 3). The fluorescence anisotropy (r) is defined by following equation: […]: fluorescence intensity measured in direction parallel to the polarised exciting light.IVH: fluorescence intensity measured in direction perpendicular to the polarised exciting light.G: IVH/IHH; correction factor for the instrument.

[2] = system: Caco-2 cells; assay: WST-1 cytotoxicity assay in Caco-2 cells, 24 h exposure; assay type: cell-based; conditions: WST-1, Caco-2, 24 h; tested range ≤ 960 mg/L
Description: Caco-2 cells (ECACC: 86010202) were purchased from the European Collection of Authenticated Cell Cultures (Salisbury, UK). […] The cells were cultivated at 37 °C, 5% CO2 and […] atmosphere in a cell culture incubator. They were passaged when reaching 80–90% confluence every 2 to 3 days. Passaging was performed at maximum ten times and by aspirating the medium, washing with phosphate-buffered saline (PBS) and incubating with trypsin–EDTA (0.05%) in Dulbecco’s phosphate-buffered saline (Capricorn Scientific GmbH, Ebsdorfergrund, Germany) at 37 °C for 3–5 min.
Cytotoxicity was first analysed by water soluble tetrazolium assay (WST-1; Roche, Berlin, Germany), followed by neutral red uptake (NRU) assay. Caco-2 cells were seeded in 96-well plates at a density of 5000 cells per well and differentiated for three weeks. The cells were incubated with both active substances and all of the above-mentioned co-formulants individually, with a combination of the active substances and the respective surfactants in a ratio in accordance with the products, as well as with the respective products, containing all co-formulants, for 24 h. Eight different concentrations were investigated in culture medium with a final concentration of 0.4% DMSO. Triton X-100 (0.1%) served as a positive control. After 24 h incubation a WST-1 assay was performed according to the protocol provided by the supplier.

[3] = molecular target: recombinant human Pgp (Homo sapiens, UniProt P08183); assay: Pgp ATPase assay (Pgp-Glo assay system)
Description: This study focused on potential effects on Pgp transporters.
Pgp ATPase activity modulation was determined using the Pgp-Glo assay system (Promega, Madison, WI, USA) following the manufacturer's user protocol. Briefly, 25 µg of recombinant human Pgp membrane in Pgp-Glo assay buffer was incubated with different concentrations of each active substance or co-formulant in combination with 200 µM verapamil at 37 °C for 5 min. […] 5 mM MgATP was added to each well and 96-well plates were incubated at 37 °C for 40 min to initiate the reaction. Luminescence of the remaining, unmetabolised ATP was initiated by adding 50 µl of 25 mM ATP detection reagent. After briefly shaking on a plate shaker, 96-well plates were incubated at room temperature for 20 min. The luciferase generated luminescence signal was measured on an Infinite M200 PRO plate reader (Tecan, Maennedorf, Swiss). All measurements were corrected by subtraction of Na3VO4-treated signals (non Pgp ATPase activity) and represented as changes in luminescence signals (ΔRLU). […] Changes in luminescence (ΔRLU) caused by the co-formulants and abamectin incubated with verapamil were compared to ΔRLU caused by verapamil. ΔRLU values of the active ingredients (without verapamil) were compared to ΔRLU values of untreated samples (basal ΔRLU). Each condition was measured in four replicates (n = 4).

Chain of recombinant human Pgp (P08183 whole entry): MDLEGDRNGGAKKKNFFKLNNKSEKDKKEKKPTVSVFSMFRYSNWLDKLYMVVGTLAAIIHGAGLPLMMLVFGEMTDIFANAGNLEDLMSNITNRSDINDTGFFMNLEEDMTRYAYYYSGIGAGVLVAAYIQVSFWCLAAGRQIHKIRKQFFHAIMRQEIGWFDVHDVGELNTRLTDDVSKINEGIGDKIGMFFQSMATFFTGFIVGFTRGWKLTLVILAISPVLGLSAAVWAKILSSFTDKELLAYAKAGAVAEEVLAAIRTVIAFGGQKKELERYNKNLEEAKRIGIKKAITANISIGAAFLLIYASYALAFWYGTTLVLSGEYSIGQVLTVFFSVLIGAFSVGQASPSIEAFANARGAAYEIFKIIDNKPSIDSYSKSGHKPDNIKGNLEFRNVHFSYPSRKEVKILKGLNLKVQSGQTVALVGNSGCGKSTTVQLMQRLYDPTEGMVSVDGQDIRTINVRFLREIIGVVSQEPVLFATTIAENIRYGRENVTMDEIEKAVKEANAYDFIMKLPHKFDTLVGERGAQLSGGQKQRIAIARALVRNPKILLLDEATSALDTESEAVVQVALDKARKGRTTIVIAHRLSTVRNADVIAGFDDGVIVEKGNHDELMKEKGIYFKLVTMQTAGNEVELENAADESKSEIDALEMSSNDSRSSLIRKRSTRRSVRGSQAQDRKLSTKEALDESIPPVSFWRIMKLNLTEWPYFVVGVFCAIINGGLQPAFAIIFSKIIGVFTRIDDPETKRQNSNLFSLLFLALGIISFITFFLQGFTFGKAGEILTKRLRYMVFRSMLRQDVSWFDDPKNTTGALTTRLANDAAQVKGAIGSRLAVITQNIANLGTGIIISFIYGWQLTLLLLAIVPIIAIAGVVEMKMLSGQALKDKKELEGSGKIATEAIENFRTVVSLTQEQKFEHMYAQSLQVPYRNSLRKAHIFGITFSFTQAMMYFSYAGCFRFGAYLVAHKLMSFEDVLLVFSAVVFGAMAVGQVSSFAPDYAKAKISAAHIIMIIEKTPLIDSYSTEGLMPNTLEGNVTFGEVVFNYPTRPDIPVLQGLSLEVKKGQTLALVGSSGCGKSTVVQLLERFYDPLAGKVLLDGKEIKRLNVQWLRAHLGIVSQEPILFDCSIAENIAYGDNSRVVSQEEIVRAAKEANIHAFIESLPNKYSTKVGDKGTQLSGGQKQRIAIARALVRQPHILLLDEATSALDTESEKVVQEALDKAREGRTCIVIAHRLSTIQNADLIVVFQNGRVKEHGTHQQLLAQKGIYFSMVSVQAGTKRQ

| Compound | impact on the fluorescence anisotropy ([1]; 64 mg/L) | cytotoxic effects over the tested concentration range [2] | stimulation of Pgp ATPase activity compared to the untreated control ([3]; 1.25 mg/L (lowest concentration), without verapamil) | maximum decreased ΔRLU value compared to the verapamil control ([3]; verapamil-stimulated (200 µM) Pgp ATPase activity, 2.5–64 mg/L, concentration-dependent inhibition) [%] | impact on the fluorescence anisotropy ([1]; 10 mg/L) |
| --- | --- | --- | --- | --- | --- |
| CCCCCCC(C)OC(=O)COc1nc(F)c(Cl)c(N)c1Cl (centres unmarked) [fluroxypyr-meptyl] | did not show a statistically significant impact | did not show significant cytotoxic effects | – | – | – |
| abamectin | – | – | approximately 250% | 30 | did not show a statistically significant impact |
